According to article PMC6273473 (Molecules, 2016):
Where “and” joins values, the source holds several entries; their conditions need not be identical. Identical values can stand only once. Entries after “also recorded” stand apart in the source; their conditions may differ. Counter-ions that a name gives are not always drawn. Like-named read-outs stand apart in the source and are kept apart here.

How the values were obtained:
[1] = target: T1, electric eel AChE (eeAChE) (Electrophorus electricus, UniProt O42275); assay: biochemical
T1 construct: purchased Sigma Aldrich, Milan, Italy
T1 sequence (O42275 24-633): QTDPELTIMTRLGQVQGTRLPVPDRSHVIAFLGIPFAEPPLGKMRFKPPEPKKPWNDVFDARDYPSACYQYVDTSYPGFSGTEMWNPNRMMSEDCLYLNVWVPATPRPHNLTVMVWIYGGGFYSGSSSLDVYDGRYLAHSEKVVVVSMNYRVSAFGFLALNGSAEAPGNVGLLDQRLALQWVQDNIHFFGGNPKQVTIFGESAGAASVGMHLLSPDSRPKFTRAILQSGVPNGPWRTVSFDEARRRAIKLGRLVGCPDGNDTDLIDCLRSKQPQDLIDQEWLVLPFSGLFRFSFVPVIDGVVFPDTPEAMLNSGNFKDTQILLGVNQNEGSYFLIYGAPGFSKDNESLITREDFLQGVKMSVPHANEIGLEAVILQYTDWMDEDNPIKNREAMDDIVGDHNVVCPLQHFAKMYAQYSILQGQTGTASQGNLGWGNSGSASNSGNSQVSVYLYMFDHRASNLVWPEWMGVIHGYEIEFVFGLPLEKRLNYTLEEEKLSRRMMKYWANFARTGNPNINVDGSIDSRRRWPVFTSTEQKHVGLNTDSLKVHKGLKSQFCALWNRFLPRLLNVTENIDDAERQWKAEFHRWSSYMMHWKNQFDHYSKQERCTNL

[2] = target: T2, equine serum butyrylcholinesterase (esBChE) (Equus caballus, UniProt P81908); assay: BChE inhibition, Ellman's method; assay type: biochemical; settings: read-out: BChE % inhibition at 10 µM
T2 construct: BChE from equine serum (13 U/mg; Sigma); purchased Sigma; host or cells: equine serum
T2 sequence (P81908 whole entry): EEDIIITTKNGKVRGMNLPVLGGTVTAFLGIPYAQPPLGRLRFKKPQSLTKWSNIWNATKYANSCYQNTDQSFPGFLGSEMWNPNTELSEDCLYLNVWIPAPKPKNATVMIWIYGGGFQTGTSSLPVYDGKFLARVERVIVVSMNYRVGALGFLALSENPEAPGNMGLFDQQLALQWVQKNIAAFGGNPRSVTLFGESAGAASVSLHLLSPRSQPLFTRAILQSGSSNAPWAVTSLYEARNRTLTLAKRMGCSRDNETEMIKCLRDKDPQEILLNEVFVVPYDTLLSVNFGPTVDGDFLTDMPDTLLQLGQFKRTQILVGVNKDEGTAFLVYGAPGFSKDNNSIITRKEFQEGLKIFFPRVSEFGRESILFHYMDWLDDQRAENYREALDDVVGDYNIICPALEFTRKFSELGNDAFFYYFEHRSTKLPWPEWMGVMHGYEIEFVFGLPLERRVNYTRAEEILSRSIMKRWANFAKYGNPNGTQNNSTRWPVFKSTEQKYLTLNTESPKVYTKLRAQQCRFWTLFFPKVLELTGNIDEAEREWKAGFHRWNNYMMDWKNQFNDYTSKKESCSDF
Procedure: 2H-Chromen-2-ones 3a–m and 8 were evaluated as inhibitors of electric eel AChE (eeAChE), equine serum butyrylcholinesterase (esBChE) and rat MAOs (rMAO-A and rMAO-B). In vitro enzymatic assays on ChEs were accomplished through the well-known spectrophotometric Ellman’s method [20].

[3] = target: T3, rMAO-B (Rattus norvegicus, UniProt P19643); assay: rat MAO-B inhibition, kynuramine spectrophotometric assay; assay type: biochemical; settings: for inhibition at 10 µM: read-out: MAO-B % inhibition at 10 µM
T3 construct: from tissue; host or cells: rat brain mitochondrial homogenate
T3 sequence (P19643 1-520): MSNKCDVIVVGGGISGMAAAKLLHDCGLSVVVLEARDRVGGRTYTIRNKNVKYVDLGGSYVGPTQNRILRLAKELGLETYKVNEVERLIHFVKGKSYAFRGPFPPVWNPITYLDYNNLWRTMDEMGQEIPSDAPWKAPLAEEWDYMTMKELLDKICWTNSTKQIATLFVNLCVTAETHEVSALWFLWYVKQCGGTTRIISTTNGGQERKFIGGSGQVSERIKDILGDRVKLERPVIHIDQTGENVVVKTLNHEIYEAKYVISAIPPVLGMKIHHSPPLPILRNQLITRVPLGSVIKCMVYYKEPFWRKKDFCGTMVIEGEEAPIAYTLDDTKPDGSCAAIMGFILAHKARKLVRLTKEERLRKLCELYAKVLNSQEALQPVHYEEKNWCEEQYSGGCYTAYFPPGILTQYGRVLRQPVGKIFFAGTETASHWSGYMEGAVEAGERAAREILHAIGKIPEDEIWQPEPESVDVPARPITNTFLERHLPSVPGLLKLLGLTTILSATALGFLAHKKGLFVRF
Procedure: (§1) MAO inhibitory activities were measured on rat brain mitochondrial homogenates [21].
(§2) The rMAO inhibitory activity of compounds in Table 1 was assessed using a continuous spectrophotometric assay [28], monitoring the rate of oxidation of the nonselective nonfluorescent MAO substrate kynuramine to 4-hydroxyquinoline, as previously reported [21]. […] Finally, IC50 values were determined by nonlinear regression of MAO inhibition vs. -log of the concentration plots, using the program Origin, Version 6.0 (Microcal Software Inc., Northampton, MA, USA).

[4] = target: T4, rMAO-A (Rattus norvegicus, UniProt P21396); assay: rat MAO-A inhibition, kynuramine spectrophotometric assay; assay type: biochemical; settings: rat brain homogenates; for inhibition at 10 µM: read-out: MAO-A % inhibition at 10 µM
T4 construct: from tissue; host or cells: rat brain mitochondrial homogenate
T4 sequence (P21396 1-526): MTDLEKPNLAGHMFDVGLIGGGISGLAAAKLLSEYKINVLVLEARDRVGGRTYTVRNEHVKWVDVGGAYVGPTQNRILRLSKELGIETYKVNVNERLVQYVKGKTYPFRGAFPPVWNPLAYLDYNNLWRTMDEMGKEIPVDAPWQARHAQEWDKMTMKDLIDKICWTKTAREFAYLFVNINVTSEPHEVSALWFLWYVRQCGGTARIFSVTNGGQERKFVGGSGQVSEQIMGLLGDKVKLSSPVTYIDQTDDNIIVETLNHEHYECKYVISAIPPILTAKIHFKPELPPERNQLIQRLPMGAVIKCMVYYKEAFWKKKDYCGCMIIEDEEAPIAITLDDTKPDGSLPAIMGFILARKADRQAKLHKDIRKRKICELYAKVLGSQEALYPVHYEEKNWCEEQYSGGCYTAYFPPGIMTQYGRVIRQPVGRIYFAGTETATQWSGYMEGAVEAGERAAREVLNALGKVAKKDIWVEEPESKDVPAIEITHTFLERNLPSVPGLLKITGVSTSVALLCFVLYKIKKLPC
Procedure: as §1, §2

[5] = test system: SH-SY5Y cells; assay: Neuroprotection against oxidative stress insults, MTT assay; assay type: cell-based, human
Procedure: Therefore, a preliminary evaluation of the cytotoxicity and neuroprotective efficacy of this hit compound was undertaken in the human SH-SY5Y neuroblastoma cell line by following the 3-(4,5-dimethylthiazol-2-yl)-2,5-diphenyl-tetrazolium bromide (MTT) assay [22].
Human neuroblastoma SH-SY5Y cells were dispensed into 96-well microtiter plates at a density of 10,000 cells/well. […] The cell viability was determined by the MTT assay and analyzed as above described. Each compound was tested in triplicate, and the experiments were repeated three times. Statistical significance was assigned to p < 0.01 and calculated using a one-way analysis of variance (ANOVA) followed by the Bonferroni post hoc tests (GraphPad Prism vers. 5).
Results are expressed as the percentage of viable cells, and data represent the means ± SD (n = 3).

[6] = test system: P-gp (MDR1); assay: in vitro; settings: dog, MDCK-MDR1, pH 7.4
[7] = test system: SH-SY5Y cells; assay: Cytotoxicity, MTT assay; assay type: cell-based; settings: 24 h incubation, 0.1–50 µM
Procedure: Human neuroblastoma cells SH-SY5Y were maintained at 37 °C in a humidified incubator containing 5% CO2 in DMEM nutrient (Lonza) supplemented with 10% heat inactivated FBS, 2 mM L-glutamine, 100 U/mL penicillin and 100 µg/mL streptomycin. Cells were dispensed into 96-well microtiter plates at a density of 10,000 cells/well. […] Then, the plates were incubated at 37 °C for 24 h. An amount of 10 µL of 0.5% w/v MTT was further added to each well, and the plates were incubated for an additional 3 h at 37 °C. Finally, the cells were lysed by the addition of 100 µL of DMSO/EtOH 1:1 (v/v) solution.
Untreated cells were used as the control.

[8] = test system: MDCKII-MDR1 cells
[9] = from electric eel, read-out: AChE IC50
[10] = determined after 30 min pre-incubation

Structure (SMILES): NC(=O)CNCc1cc2ccccc2oc1=O [Compound 3a, N^2-[(2-oxo-2H-Chromen-3-yl)methyl]glycinamide]
- IC50 [1, 9]: 12 ± 1 µM
- inhibition at 10 µM ([2]; from equine serum, 10 µM): 6.2%
- inhibition at 10 µM ([3]; rat brain homogenates): < 5%
- inhibition at 10 µM [4]: < 5%

Structure (SMILES): CN(Cc1cccc(F)c1)Cc1cc2ccccc2oc1=O [Compound 3b, 3-{[(3-Fluorobenzyl)(methyl)amino]methyl}-2H-chromen-2-one hydrochloride]
- IC50 ([1]; AChE IC50, from electric eel): 6.8 ± 0.1 µM
- inhibition at 10 µM ([2]; from equine serum, 10 µM): 15%
- inhibition at 10 µM ([3]; rat brain homogenates): < 5%
- inhibition at 10 µM [4]: < 5%

Structure (SMILES): C#CCN(C)Cc1cc2ccccc2oc1=O [Compound 3c, 3-{[Methyl(prop-2-yn-1-yl)amino]methyl}-2H-chromen-2-one]
- IC50 [1, 9]: 8.4 ± 0.5 µM
- inhibition at 10 µM ([2]; from equine serum, 10 µM): < 5%
- IC50 ([3]; rat brain homogenates, determined after 30 min pre-incubation, read-out: MAO-B IC50): 0.377 ± 0.014 µM
- IC50 [4, 10]: 7 ± 1.4 µM

Structure (SMILES): COc1ccc2cc(CN(C)Cc3cccc(F)c3)c(=O)oc2c1 [Compound 3d, 3-{[(3-Fluorobenzyl)(methyl)amino]methyl}-7-methoxy-2H-chromen-2-one]
- IC50 [1, 9]: 6.6 ± 0.1 µM
- inhibition at 10 µM ([2]; from equine serum, 10 µM): 8.5%
- inhibition at 10 µM ([3]; rat brain homogenates): < 5%
- inhibition at 10 µM [4]: 6%

Structure (SMILES): COc1ccc2cc(CN(C)Cc3cccc(C#N)c3)c(=O)oc2c1 [Compound 3e, 3-{[[(7-Methoxy-2-oxo-2H-chromen-3-yl)methyl](methyl)amino]methyl}benzonitrile]
- IC50 [1, 9]: 8.4 ± 0.3 µM
- inhibition at 10 µM ([2]; from equine serum, 10 µM): < 5%
- inhibition at 10 µM ([3]; rat brain homogenates): < 5%
- inhibition at 10 µM [4]: 9.2%

Structure (SMILES): C#CCN(C)Cc1cc2ccc(OC)cc2oc1=O [Compound 3f, 7-Methoxy-3-{[methyl(prop-2-yn-1-yl)amino]methyl}-2H-chromen-2-one hydrochloride]
- IC50 ([1]; AChE IC50, from electric eel): 14 ± 1 µM
- inhibition at 10 µM [2]: 13%

Structure (SMILES): COc1cc2cc(CN(C)Cc3cccc(Cl)c3)c(=O)oc2cc1OC [Compound 3g, 3-{[(3-Chlorobenzyl)(methyl)amino]methyl}-6,7-dimethoxy-2H-chromen-2-one hydrochloride]
- IC50 ([1]; AChE IC50, from electric eel): 4.4 ± 1.1 µM
- inhibition at 10 µM ([2]; from equine serum, 10 µM): 19%
- inhibition at 10 µM ([3]; rat brain homogenates): < 5%
- inhibition at 10 µM [4]: 7%

Structure (SMILES): C#CCN(C)Cc1cc2cc(OC)c(OC)cc2oc1=O.Cl [Compound 3h, 6,7-Dimethoxy-3-{[methyl(prop-2-yn-1-yl)amino]methyl}-2H-chromen-2-one hydrochloride]
- Neuroprotection against oligomycin-A ([5]; 0.1 µM compound, oligomycin-A 30 µM, 24 h co-incubation): moderate neuroprotection; also recorded: promising neuroprotective effect
- Neuroprotection against rotenone ([5]; 0.1 µM compound, rotenone 75 µM, 24 h co-incubation): moderate neuroprotection; also recorded: promising neuroprotective effect
- Neuroprotection (cell survival) ([5]; 1 µM compound, 24 h co-incubation with H2O2 195 µM, oligomycin-A 30 µM or rotenone 75 µM): no increase of cell survival
- IC50 ([1]; AChE IC50, from electric eel): 8.99 µM and 9 µM
- Papp A→B at 120 min, 75 µM [6]: 22.7 ×10⁻⁶ cm/s
- Papp B→A at 120 min, 75 µM [6]: 21.8 ×10⁻⁶ cm/s
- Cytotoxicity (viability of SH-SY5Y cells) [7]: negligible cytotoxicity; also recorded: low cytotoxicity
- inhibition at 10 µM ([2]; from equine serum, 10 µM): < 5%
- IC50 [3]: 0.0028 ± 0.0004 µM
- inhibition at 10 µM [4, 10]: < 5%
- P-gp substrate [8]: not likely to be a substrate for P-gp; also recorded: did not result in a glycoprotein-p (P-gp) substrate

Structure (SMILES): CNCc1cc2cc(OC)c(OC)cc2oc1=O [Compound 3i, 6,7-Dimethoxy-3-[(methylamino)methyl]-2H-chromen-2-one hydrochloride]
- IC50 ([1]; AChE IC50, from electric eel): 13 ± 1 µM
- inhibition at 10 µM ([2]; from equine serum, 10 µM): 10%
- inhibition at 10 µM ([3]; rat brain homogenates): < 5%
- inhibition at 10 µM [4]: < 5%

Structure (SMILES): COc1cc2cc(CNCc3ccccc3)c(=O)oc2cc1OC [Compound 3j, 3-[(Benzylamino)methyl]-6,7-dimethoxy-2H-chromen-2-one]
- IC50 [1, 9]: 2.78 µM and 2.8 µM
- inhibition at 10 µM ([2]; from equine serum, 10 µM): 27%
- inhibition at 10 µM ([3]; rat brain homogenates): < 5%
- inhibition at 10 µM [4]: < 5%

Structure (SMILES): COc1cc2cc(CNCc3ccc(C#N)cc3)c(=O)oc2cc1OC [Compound 3k, 4-({[(6,7-Dimethoxy-2-oxo-2H-chromen-3-yl)methyl]amino}methyl)benzonitrile]
- IC50 [1, 9]: 8.4 ± 1.1 µM
- inhibition at 10 µM ([2]; from equine serum, 10 µM): 13%
- inhibition at 10 µM ([3]; rat brain homogenates): < 5%
- inhibition at 10 µM [4]: 20%

Structure (SMILES): COc1cc2cc(CNCC(N)=O)c(=O)oc2cc1OC [Compound 3l, N^2-[(6,7-Dimethoxy-2-oxo-2H-chromen-3-yl)methyl]glycinamide]
- IC50 [1, 9]: 8 ± 1.2 µM
- inhibition at 10 µM ([2]; from equine serum, 10 µM): 10%
- inhibition at 10 µM ([3]; rat brain homogenates): < 5%
- inhibition at 10 µM [4]: < 5%

Structure (SMILES): CNC(=O)CNCc1cc2cc(OC)c(OC)cc2oc1=O [Compound 3m, N^2-[(6,7-Dimethoxy-2-oxo-2H-chromen-3-yl)methyl]-N^1-methylglycinamide]
- IC50 [1, 9]: 7.7 ± 0.4 µM
- inhibition at 10 µM ([2]; from equine serum, 10 µM): 11%
- inhibition at 10 µM ([3]; rat brain homogenates): < 5%
- inhibition at 10 µM [4]: < 5%

Structure (SMILES): C#CCN(C)Cc1cc2cc(OC)c(O)cc2oc1=O [Compound 8, 7-Hydroxy-6-methoxy-3-{[methyl(prop-2-yn-1-yl)amino]methyl}-2H-chromen-2-one]
- IC50 [1, 9]: 9.3 ± 0.4 µM
- inhibition at 10 µM ([2]; from equine serum, 10 µM): < 5%
- inhibition at 10 µM ([3]; rat brain homogenates, determined after 30 min pre-incubation): 11%
- inhibition at 10 µM [4, 10]: 35%
